Experimental findings from patent US8445509B2, “Fused heterocyclic derivatives and use thereof” (Takeda Pharmaceutical Company Limited, priority 2008, dated 2013) are described below.

The test system of one assay is MKN-45 cells. Briefly: Antitumor test, MKN-45 transplanted nude mouse. In kind it is in vivo, nude mouse (BALB/c nu/nu). The conditions noted are these: orally, 14 consecutive days. The procedure: (§1) Cancer cells were cultured in a culture medium containing 10% bovine fetal serum in an incubator at 37° C., 5% CO2. MKN-45 cells were treated with trypsin/EDTA and isolated. MKN-45 and MV-4-11 cells were washed with HBSS (HANK's Balanced Saline Solution). When MKN-45 cells were transplanted, they were adjusted with HBSS to a cell density of 1.2×10^8 cells/mL, and transplanted by subcutaneous injection of 0.05 mL of a mixed suspension (3×10^6 cells) of the cell suspension and the same amount of Matrigel into the abdomen of 6 or 7-week-old female nude mouse (BALB/c nu/nu, CLEA Japan, Inc.). When MV-4-11 cells were transplanted, they were adjusted with HESS to a cell density of 1.2×10^8 cells/mL, and transplanted by subcutaneous injection of 0.05 mL of a mixed suspension (3×10^6 cells) of the cell suspension and the same amount of Matrigel into the abdomen of 7-week-old female nude mouse (BALB/c nu/nu, CLEA Japan, Inc.). When the average tumor volume reached 100-250 mm^3, the mice were grouped, and various doses of test substance were orally administered for 14 consecutive days starting from the next day. The length of the major axis and the length of the minor axis of the tumor were measured over time and the tumor volume was calculated by tumor volume=major axis length×minor axis length×minor axis length×0.5. The ratio of an increase in the average tumor volume of the control group to an increase in the average tumor volume of the drug administration group was taken as the tumor growth rate (%) of the drug administration group. Table 5 showned MKN-45 tumor growth rate (%) and table 6 showned MV-4-11 tumor growth rate (%).

In a further assay the test system is MV-4-11 cells. Put plainly: Antitumor test, MV-4-11 transplanted nude mouse. In kind it is in vivo, nude mouse (BALB/c nu/nu). The settings on record: MV-4-11, dose 2 mg/kg, orally, 14 consecutive days. As to the method: as §1
Assay [1] deals with Human blood cell cancer cell line MV-4-11. Put plainly: Human blood cell cancer cell line MV-4-11 growth inhibitory test. In kind it is cell-based. The settings on record: MV4-11, 72 h, culture for 3 days. As to the method:
Human blood cell cancer cell line MV-4-11 (ATCC) was cultured in IMDM (Invitrogen) containing 10% bovine fetal serum in an incubator at 37° C., 5% CO2. MV-4-11 cells were treated with trypsin/EDTA and recovered. The cells were suspended in IMDM containing 10% bovine fetal serum, plated on a 96 well flat bottom plate at a cells density of 30,000 cells/50 μL per well. After culturing overnight, various concentrations of test substance were dissolved in IMDM containing 10% bovine fetal serum and added to each well by 50 μL. After culture for 3 days, a Cell counting kit-8 reagent (DOJINDO LABORATORIES) was added to each well by 10 μL, and reacted in an incubator at 37° C., 5% CO2 for 2-3 hr. After the reaction, the absorbance of each well at 450 nm was measured by a microtiter plate reader. The concentration of a test substance necessary for inhibiting the growth by 50% (IC50 value) was calculated using a cell proliferation rate with addition of the test substance at each concentration and according to the nonlinear regression analysis using GraphPad Prism [Sigmoidal dose response (variable slope)].

Assay [2] concerns Human gastric cancer cell line MKN-45. Put plainly: Human gastric cancer cell line MKN-45 growth inhibitory test. In kind it is cell-based. The settings on record: MKN-45, 72 h. The procedure:
Human gastric cancer cell line MKN-45 (RIKEN BioResource Center) was cultured in RPMI1640 (Invitrogen) containing 10% bovine fetal serum in a gas incubator at 37° C., 5% CO2. MKN-45 cells were treated with trypsin/EDTA and recovered. The cells were suspended in RPMI1640 containing 0.3% bovine fetal serum, plated on a 96 well flat bottom plate at a cells density of 3000 cells/50 μL per well. After culturing overnight, various concentrations of test substance were dissolved in RPMI1640 containing 0.3% bovine fetal serum and added to each well by 50 μL. After culture for 3 days, a Cell counting kit-8 reagent (DOJINDO LABORATORIES) was added to each well by 10 μL, and reacted in an incubator at 37° C., 5% CO2 for 2-3 hr. After the reaction, the absorbance of each well at 450 nm was measured by a microtiter plate reader. The concentration of a test substance necessary for inhibiting the growth by 50% (IC50 value) was calculated using a cell proliferation rate with addition of the test substance at each concentration and according to the nonlinear regression analysis using GraphPad Prism [Sigmoidal dose response (variable slope)]. The cell proliferation rate (%) with addition of a test substance at each concentration was calculated by the following formula. As a positive control (100% growth), dimethyl sulfoxide was added instead of a test substance. As a negative control (0% growth), the compound of Reference Example 136 (WO2005/030140, Entry 104), which is a known c-Met inhibitor, was added in large excess (10 μM) instead of a test substance.

Assay [3] has as its system Human umbilical vein-derived vascular endothelial cells (HUVEC). Briefly: Vascular endothelial cell proliferation inhibitory test (VEGF-stimulated HUVEC). In kind it is cell-based. The conditions noted are these: 120 h, 5 days of culture with VEGF. The procedure: Human umbilical vein-derived vascular endothelial cells (HUVEC purchased from KURABO […] LTD.) were cultured in an incubator at 37° C., 5% carbon dioxide in a vascular endothelial cell medium (Invitrogen) containing 3% bovine fetal serum and 2.5 ng/mL basic fibroblast growth factor. To be specific, HUVEC was suspended in a vascular endothelial cell medium containing the aforementioned 3% bovine fetal serum and plated on a 96 well flat bottom plate by 50 μL (3000 cells) each well. After culture overnight, various concentrations of the test substance and 120 ng/mL of vascular endothelial growth factor (VEGF) were dissolved in a vascular endothelial cell medium containing 3% bovine fetal serum and added to each well by 50 μL. After 5 days of culture, a Cell counting kit-8 reagent (DOJINDO LABORATORIES) was added to each well by 10 μL, and the mixture was reacted in an incubator at 37° C., 5% carbon dioxide for 2-3 hr. The absorbance at 450 nm was measured by a microtiter plate reader and the cell proliferation inhibitory activity was determined. Using the absorbance with addition of a test substance at each concentration and based on the nonlinear least-squares analysis using a logistic curve of SAS system NLIN procedure, the concentration of the test substance (IC50 value) necessary for showing 50% of the value obtained without addition of the test substance was calculated.

Assay [4] has as its target T1, FLT3 intracellular domain protein (Homo sapiens, UniProt P36888).
T1 construct: 7.5 ng/ml of FLT3 intracellular domain protein (Millipore); purchased Millipore
T1 sequence (P36888 564-993 limits assumed): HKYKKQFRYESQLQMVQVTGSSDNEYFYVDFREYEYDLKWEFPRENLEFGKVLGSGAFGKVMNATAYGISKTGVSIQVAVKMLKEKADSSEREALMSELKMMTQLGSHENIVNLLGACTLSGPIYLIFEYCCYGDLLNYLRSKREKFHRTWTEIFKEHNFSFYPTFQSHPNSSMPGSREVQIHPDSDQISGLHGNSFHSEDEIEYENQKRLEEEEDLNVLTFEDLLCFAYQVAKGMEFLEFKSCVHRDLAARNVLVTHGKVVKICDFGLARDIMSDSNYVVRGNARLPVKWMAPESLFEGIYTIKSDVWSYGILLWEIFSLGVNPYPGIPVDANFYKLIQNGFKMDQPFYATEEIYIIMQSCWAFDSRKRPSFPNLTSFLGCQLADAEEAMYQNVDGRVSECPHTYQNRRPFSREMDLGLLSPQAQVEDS
Briefly: Fms Like Tyrosine Kinase 3 (FLT3) kinase inhibitory activity (AlphaScreen). In kind it is biochemical. As to the method: A test compound dissolved in dimethyl sulfoxide (DMSO) was diluted with a buffer (50 mM Tris-HCl (pH 7.5), 5 mM MgCl2, 5 mM MnCl2, 2 mM dithiothreitol, 0.01% Tween-20). To this compound solution (5 μL) was added a buffer (10 μL) containing 7.5 ng/ml of FLT3 intracellular domain protein (Millipore) and 250 ng/mL of biotin labeled polypeptide biotinyl-poly-Glu:Tyr (4:1) (CIS bio International). At 5 min after mixing kinase enzyme and the compound and biotin labeled polypeptide, to the obtained mixture was added a buffer (10 μL) containing ATP (5 μM), the mixture was allowed to react at 25° C. for 10 min and the reaction was quenched with 25 μL of a stop solution (100 mM EDTA disodium salt, 62.5 mM HEPES buffer (pH 7.4), 250 mM NaCl, 0.1% bovine serum albumin, 10 μg/mL AlphaScreen assay streptavidin donor beads (Streptavidin Donor Beads: PerkinElmer), 10 μg/mL AlphaScreen assay anti-phosphotyrosine recognition antibody Y-100 binding acceptor beads (Anti-phosphotyrosine (P-Tyr-100) Acceptor beads: PerkinElmer)). The reaction solution was allowed to stand at 25° C. for 16 hrs, and the wells were counted using a plate reader (Envision™ (PerkinElmer)). The kinase inhibitory rate (%) of the test compound was calculated by the following formula: Inhibitory rate (%)=(1−(count of test compound−blank)÷(control−blank))×100
(§2) The count of the solution reacted without addition of the compound was used as a “control”, and the count of the solution without the compound and ATP was used as a “blank”.
(Alpha assays give light when donor and acceptor beads are brought close together.)

Assay [5] concerns the target T2, Tie2 intracellular domain protein (Homo sapiens, UniProt Q02763).
T2 construct: 50 ng/mL of Tie2 intracellular domain protein (Millipore); purchased Millipore
Briefly: TIE2 kinase inhibitory activity (AlphaScreen). In kind it is biochemical. The procedure: A test compound dissolved in dimethyl sulfoxide (DMSO) was diluted with a buffer (50 mM Tris-HCl (pH 7.5), 5 mM MgCl2, 5 mM MnCl2, 2 mM dithiothreitol, 0.01% Tween-20). A buffer (10 μL) containing 50 ng/mL of Tie2 intracellular domain protein (Millipore) and 250 ng/ml, of biotin labeled polypeptide biotinyl-poly-Glu:Tyr (4:1) (CIS bio International) was added to the compound solution (5 μL). At 5 min from the mixing of the kinase enzyme, the compound and the biotin labeled polypeptide, a buffer (10 μL) containing 5 μM ATP was added, and the mixture was reacted at 25° C. for 10 min. The reaction was quenched by the addition of 25 μL of a stop solution (100 mM EDTA disodium salt, 62.5 mM HEPES buffer (pH 7.4), 250 mM NaCl, 0.1% bovine serum albumin, 10 μg/ml AlphaScreen assay streptavidin donor beads (Streptavidin Donor beads: PerkinElmer), 10 μg/ml, AlphaScreen assay anti-phosphotyrosine recognition antibody PT-66 binding acceptor beads (Anti-phosphotyrosine (PT-66) Acceptor beads: PerkinElmer)). The reaction solution was allowed to stand at 25° C. for 16 hrs, and the […] were counted using a plate reader (Fusion™ (PerkinElmer)). The kinase inhibitory rate (%) of the test compound was calculated by the following formula: Inhibitory rate (%)=(1−(count of test compound−blank)÷(control−blank))×100
as §2

pIC50: −log10 of the molar value. A value given as a limit tells only on which side of the number the result lay.

By pIC50 is commonly meant −log10 of the IC50, conventionally taken in molar units.

T2 sequence (Q02763 770-1124 limits assumed): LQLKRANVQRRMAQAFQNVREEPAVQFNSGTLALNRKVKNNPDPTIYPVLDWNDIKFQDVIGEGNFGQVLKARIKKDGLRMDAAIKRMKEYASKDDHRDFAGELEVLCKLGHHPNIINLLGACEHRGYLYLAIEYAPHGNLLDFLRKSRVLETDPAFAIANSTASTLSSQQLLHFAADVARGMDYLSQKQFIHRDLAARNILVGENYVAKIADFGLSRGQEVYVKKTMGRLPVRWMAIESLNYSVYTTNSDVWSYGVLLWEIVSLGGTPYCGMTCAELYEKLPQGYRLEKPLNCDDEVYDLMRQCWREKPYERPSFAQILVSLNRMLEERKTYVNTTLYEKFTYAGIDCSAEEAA

Consider `Cl.O=C(Nc1cn2cc(Oc3ccc(NC(=O)C4(C(=O)Nc5ccccc5)CC4)cc3F)ccc2n1)C1CC1` [Example 15, N-[4-({2-[(cyclopropylcarbonyl)amino]imidazo[1,2-a]pyridin-6-yl}oxy)-3-fluorophenyl]-N′-phenylcyclopropane-1,1-dicarboxamide hydrochloride], for which the “tumor growth rate (%)” value with MKN-45 cells (MKN-45, dose 2 mg/kg) came to 85%; in the assay on MV-4-11 cells it was 17%.

For the compound `Cc1ccc(C(=O)Nc2ccc(Oc3ccc4nc(NC(=O)C5CC5)cn4c3)cn2)[n+]([O-])c1-c1ccc(F)cc1.Cl.O` [Example 63, N-[5-({2-[(cyclopropylcarbonyl)amino]imidazo[1,2-a]pyridin-6-yl}oxy)pyridin-2-yl]-6-(4-fluorophenyl)-5-methylpyridine-2-carboxamide 1-oxide•hydrochloride•monohydrate], the “tumor growth rate (%)” value is reported as 24% in the assay with MKN-45 cells (MKN-45, dose 1 mg/kg) and below 0% in the assay on MV-4-11 cells.

For the compound `Cc1ccc(C(=O)Nc2ccc(Oc3ccc4nc(NC(=O)C5CC5)cn4c3)c(F)c2)c(=O)n1-c1ccccc1` [Example 86, N-[4-({2-[(cyclopropylcarbonyl)amino]imidazo[1,2-a]pyridin-6-yl}oxy)-3-fluorophenyl]-6-methyl-2-oxo-1-phenyl-1,2-dihydropyridine-3-carboxamide acetate], the inhibition at 1 µM in assay [1] (1 μM test substance, read-out: inhibitory rate (%) at 1 μM) was at least 90%; in assay [2] (read-out: inhibitory rate (%) at 1 μM, 1 μM test substance, culture for 3 days), at least 80%. The pIC50 is at least 6.00 in assay [1]; at least 6.00 in assay [2] (read-out: IC50 value); at least 5.70 in assay [3]; at least 6.00 in assay [4]; at least 6.00 in assay [5].

On to `Cc1ccc(C(=O)Nc2ccc(Oc3ccc4nc(NC(=O)C5CC5)cn4c3)c(F)c2)c(=O)n1-c1ccccc1.Cc1ccc(S(=O)(=O)O)cc1` [Example 87, N-[4-({2-[(cyclopropylcarbonyl)amino]imidazo[1,2-a]pyridin-6-yl}oxy)-3-fluorophenyl]-6-methyl-2-oxo-1-phenyl-1,2-dihydropyridine-3-carboxamide p-toluenesulfonate], for which the “tumor growth rate (%)” value in the assay with MKN-45 cells (MKN-45, dose 2 mg/kg) was 17%; in the assay on MV-4-11 cells it was below 0%.

For `Cc1ccc(C(=O)Nc2ccc(Oc3ccc4nc(NC(=O)C5CC5)cn4c3)c(F)c2)c(=O)n1-c1ccccc1.Cl` [Example 88, N-[4-({2-[(cyclopropylcarbonyl)amino]imidazo[1,2-a]pyridin-6-yl}oxy)-3-fluorophenyl]-6-methyl-2-oxo-1-phenyl-1,2-dihydropyridine-3-carboxamide hydrochloride], the “tumor growth rate (%)” value with MKN-45 cells (MKN-45, dose 2 mg/kg) is recorded as 17%; in the assay on MV-4-11 cells, below 0%.
